Measured values published in US4749704A, “Cyclopenta[d]pyrimidine derivatives and use as antidepressants” (Sankyo Company Limited, priority 1985, dated 1988).

Legend:
reserpine-induced ptosis = experiment: Test for Anti-reserpine Activity (inhibition of reserpine-induced ptosis); assay type: in vivo, male mice of the ddy strain; settings: mice, oral, reserpine 2 mg/kg s.c., ptosis at 90, 120 and 180 min
Description: The test animals used were male mice of the ddy strain, each weighing 23-25 g. Each compound was tested on a group of five such mice. Each test compound was employed in the form of a solution or suspension in a physiological saline solution containing 0.3% w/v carboxymethylcellulose. The test employed was a partial modification of the method of Rubin et al. [J. Pharmacol. Exptl. Therap., 120, 125 (1957)].
2 mg/kg of reserpine were injected subcutaneously into each mouse and, immediately after the injection, the solution or suspension of the test compound was given orally in a dose of 5 mg/kg, 10 mg/kg or 25 mg/kg, as shown in the following Table. The animals were observed 90 minutes, 120 minutes and 180 minutes after administration to evaluate the inhibition of ptosis. At each observation, each mouse was assigned from 0 to 3 points corresponding to the degree of ptosis, as follows:
0 points: eyes completely open;
1 point: eyes about one third closed;
2 points: eyes about two thirds closed;
3 points: eyes completely closed.
For each mouse, the number of points from all three observations were added together, and the percentage inhibition of reserpine-induced ptosis (Ri) was calculated from the following formula:
Po =total number of points from three observations of an animal to which reserpine alone was administered; and
Pt =total number of points from three observations of an animal to which reserpine and the test compound were administered.

[1] = test system: male rats of the F-344 strain; experiment: Acute Toxicity Test (single oral dose, 7 days observation); assay type: in vivo, rat (F-344 strain)
Description: The test animals used were male rats of the F-344 strain, each weighing from 150 to 170 g. One group of animals was fed normally, whilst another group was starved for 24 hours before administration of the test compound. To each animal was administered orally a single dose of the test compound in the amount shown in the following Table; the animals were then placed under observation for 7 days after administration. The results are reported in Table as "Mortality", where the numerator indicates the number of deaths in the observation period and the denominator indicates the number of animals tested with the particular test compound at the particular dose.

monoamine oxidase = experiment: Toxicity to the Liver (inhibition of monoamine oxidase in the rat liver); assay type: biochemical; settings: estimated from inhibition of monoamine oxidase in the rat liver
[2] = background statement; cited from earlier work

N#Cc1ccc(Nc2ncnc3c2CCC3O)cc1 (stereo not shown) [Compound No. 31, 4-(4-Cyanoanilino)-6,7-dihydro-7-hydroxy-5H-cyclopenta[d]pyrimidine]
Ri % (percentage inhibition of reserpine-induced ptosis) (reserpine-induced ptosis; dose 5 mg (5 mg/kg)): 50%
Ri % (percentage inhibition of reserpine-induced ptosis) (reserpine-induced ptosis; dose 10 mg (10 mg/kg)): 71.4%
Ri % (percentage inhibition of reserpine-induced ptosis) (reserpine-induced ptosis; dose 25 mg (25 mg/kg)): 85.7%
Mortality (deaths/animals tested) ([1]; fed rats, single oral dose 800 mg): 0/5
Mortality (deaths/animals tested) ([1]; starved (24 hours) rats, single oral dose 1500 mg): 0/5
toxicity to the liver relative to the prior art compound (Compound A) (monoamine oxidase): about half that of the prior art compound

N#Cc1ccc(Nc2ncnc3c2CCC3)cc1 [Compound A, 4-(4-cyanoanilino)-6,7-dihydro-5H-cyclopenta[d]pyrimidine, reference compound]
Ri % (percentage inhibition of reserpine-induced ptosis) (reserpine-induced ptosis; dose 25 mg (25 mg/kg)): 85.0%
Mortality (deaths/animals tested) ([1]; fed rats, single oral dose 200 mg): 1/5
Mortality (deaths/animals tested) ([1]; starved (24 hours) rats, single oral dose 200 mg): 3/5

CN(C)CCCN1c2ccccc2CCc2ccccc21 [Imipramine]
side-effect activities [2]: exhibits antihistaminic and anticholinergic activities
